We go through 6 compounds from US20060104951A1, “Akt and regulation of RA synovial fibroblast apoptosis” (priority 2004, published 2006).

Where two headings read alike, the source gives them in different places.

Data set [1] addresses T1, Akt (Homo sapiens, UniProt P31749). The note with it: Cell: HL-60 K562; cited from earlier work.
In data set [2] the target is T1, Akt. Also noted: many cells; H2O2-treated B cells. The note with it: Cell: IL-2 activated T cell; cited from earlier work.
The subject of data set [3] is rheumatoid arthritis synovial fibroblasts (RASF). Briefly: ATPlite-M cytotoxicity assay in RASF. The note with it: wortmannin alone, 18 hours. In general terms: In ATP-based viability assays light output follows the ATP content of the culture.
Data set [4] has as its target T1, Akt. Further details: many cells; H2O2-treated B cells. The note with it: Cell: Many; cited from earlier work.
In data set [5] the test system is Akt. Briefly: Akt kinase assay (immunoprecipitated Akt, GSK-3 fusion protein substrate) in OASF. Format: cell-based, human. The note with it: TNF-α 10 ng/ml. On the procedure:
Active Akt phosphorylates GSK-3 at […].
Akt kinase assay of RA synovial fibroblasts is performed using Akt kinase assay kit according to the protocol provided by manufacturer (New England Biolabs, Beverly, Mass.). Briefly, three hundreds micrograms of total proteins from RA synovial fibroblasts are added into Akt antibody coated beads, incubated at 4° C. for 3 hours followed by washing. Phosphorylation of GSK-3 is used as an indicator of phosphorylated Akt, since Akt negatively regulates GSK-3a/b kinase activity via phosphorylation of GSK-3 at […]. After the kinase reaction, the reaction mixture is electrophoresed on a 12% SDS-PAGE gel and western blotted. The blots are probed with an anti-phospho-GSK-3a/b (Ser219) antibody (rabbit polyclonal IgG, affinity purified).

Data set [6] deals with phosphorylated Akt. Briefly: Western blot of phosphorylated-Akt in RASF lysates. The note with it: TNF-α 10 ng/ml alone.
Method: The levels of phosphorylated-Akt are determined by Western blot analysis of lysates from RASF and OASF cell lines.
To determine the optimal amount of AdAkt-DN required to inhibit Akt phosphorylation, RASF is transfected with either 50 pfu/cell of AdGFP or with 5 pfu/cell or with 50 pfu/cell of AdAkt-DN respectively for 18 hr. The cells are then stimulated with TNFα (10 ng/ml) for 18 hr.
For evaluation of the phosphorylated form of Akt, the synovial cells are washed twice with ice-cold PBS followed by incubation with 200 μl of cell lysis buffer (20 mmol/L Tris [pH 7.4], 150 mmol/L NaCl, 1 mmol/L EDTA, 1 mmol/L EGTA, 1% Triton, 2.5 mmol/L sodium pyrophosphate, 1 mmol/L β-glycerophosphate, 1 mmol/L Na3VO4, 1 μg/mL leupeptin, and 1 mmol/L PMSF) for 5 min on ice. The cells are then harvested by scraping and sonicated using a Branson Sonicator (3×5 seconds, output control 2, duty cycle 100%) on ice. After centrifugation for 10 min at 20,000 g at 4° C., the protein concentration of the supernatant is determined using the Bio-Rad protein assay kit (Bio-Rad, Hercules, Calif.). […] Phosphorylated Akt is detected using the PhosphoPlus Akt antibody kit (New England Biolabs, Beverly, Mass.).
For data set [7], the system named is phosphorylated Akt (Thr308). In words: Immunohistochemical staining of phosphorylated Akt in primary RASF. The note with it: TNF-α 10 ng/ml alone vs PBS, 18 hours.
Method: To determine if this TNF-α survival signal involves a PI 3-kinase dependent mechanism, RASF and OASF are treated with TNF-α (10 ng/ml), using PBS as a control, in the presence and absence of the PI 3-kinase inhibitor, wortmannin (50 nM). After 18 hours, the synovial fibroblasts are stained using an antibody specific for phosphorylated-Akt.
The in-situ expression of phosphorylated-Akt is determined by staining fixed cells with an antibody specific for Thr308 phosphorylated Akt (New England Biolabs, Beverly, Mass.). Quenching of endogenous peroxidase is performed by incubating tissue sections with 3% H2O2 at RT for 10 min in a humidified chamber. After washing with PBS, tissue sections are incubated with 0.1% trypsin at 37° C. for 10 min to reveal fixed antigen epitopes. Tissue sections are then treated with denaturing solution at 20° C. for 30 min and blocking solution at RT for 10 min followed by incubation with a horseradish peroxidase (HRP) conjugated antibody specific for phosphorylated-Akt antibody (New England Biolabs, Beverly, Mass.). Slides are incubated with DAB staining kit (DAKO) for color development then counterstained with methyl green. At least 5 areas from each specimen are chosen randomly for assessment of the percentage of Akt-positive cells.

T1 sequence (P31749 whole entry): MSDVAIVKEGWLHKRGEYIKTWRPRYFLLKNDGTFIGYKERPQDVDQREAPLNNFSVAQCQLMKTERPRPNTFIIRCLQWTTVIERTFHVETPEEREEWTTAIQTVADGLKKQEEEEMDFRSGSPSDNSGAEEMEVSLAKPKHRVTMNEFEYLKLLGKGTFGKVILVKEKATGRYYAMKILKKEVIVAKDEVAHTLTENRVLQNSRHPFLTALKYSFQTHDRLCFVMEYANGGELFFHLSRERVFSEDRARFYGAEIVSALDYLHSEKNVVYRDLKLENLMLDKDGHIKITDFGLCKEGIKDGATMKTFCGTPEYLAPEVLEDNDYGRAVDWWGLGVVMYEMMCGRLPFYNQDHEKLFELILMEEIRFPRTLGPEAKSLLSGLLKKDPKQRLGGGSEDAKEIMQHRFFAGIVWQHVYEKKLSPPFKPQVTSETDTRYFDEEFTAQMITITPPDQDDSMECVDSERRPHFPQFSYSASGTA

On to `Cc1ccc(NC(=O)c2ccc(CN3CCN(C)CC3)cc2)cc1Nc1nccc(-c2cccnc2)n1` [CGP57148B], for which the Action result in data set [1] is “Block Akt”.
Take `C[S+]([O-])c1ccc(-c2nc(-c3ccncc3)c(-c3ccc(F)cc3)[nH]2)cc1` (centres unmarked) [SB 203580]: the Action result in data set [2] is reported as “Block Akt”.
On to `COC[C@H]1OC(=O)c2coc3c2[C@@]1(C)C1=C(C3=O)[C@@H]2CCC(=O)[C@@]2(C)C[C@H]1OC(C)=O` [wortmannin], for which, in data set [3], the “cytotoxicity (ATPlite)” value is “Neither treatment with TNF-α nor wortmannin alone could induce cytotoxicity”.
With “Insulin-like growth factor-1: growth factor known to activate Akt”, the Action result in data set [4] is recorded as “Activates Akt”.
As to PDGF, in data set [4], the Action entry is “Activates Akt”.
On to tumor necrosis factor-alpha [TNF-α], for which the Akt kinase activity entry in data set [5] is “did not induce Akt kinase activity”. Moreover, the “levels of phosphorylated-Akt (Western blot)” value in data set [6] is reported as “marked increase”. Moreover, the “production of phosphorylated Akt (immunohistochemical staining)” value in data set [7] is listed as “greatly enhanced production of phosphorylated Akt”.
